“Also recorded” adds a separate entry of the source. Non-standard residues stand in square brackets, D forms with d. Residues, ends and D or L forms follow the SMILES beside them. ξ: configuration not given here. *: point of attachment. Ile(3ξ) = CCC(C)[C@H](N)C(=O)O; Cbz = O=C(OCc1ccccc1)*
How the values were obtained:
SUMO-3 = SUMO-3 (Homo sapiens, UniProt P55854); experiment: NMR (HSQC) chemical shift perturbation binding to SUMO-3; details: for chemical shift perturbation / binding to SUMO-3: HSQC, SUMO:ligand 1:3 or 1:10
Chain of SUMO-3 (P55854 1-92 limits assumed): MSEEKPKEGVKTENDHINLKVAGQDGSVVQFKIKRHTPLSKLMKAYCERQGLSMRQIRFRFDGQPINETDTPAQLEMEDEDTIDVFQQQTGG
Method: NMR studies. All NMR samples contained 10 mM phosphate buffer (pH 7.0) in 90% H2O/10% D2O. NMR spectra were acquired at 25° C. on a Bruker […] NMR spectrometer. All chemicals were dissolved in DMSO. Heteronuclear Single Quantum Coherence (HSQC) spectra were acquired at SUMO:compound ratios of 1:3 or 1:10 for the top scored compounds from virtual ligand screening. Both SUMO-1 and SUMO-2 were examined for their interactions with the compounds. The HSQC spectra were acquired for the protein alone, the protein with addition of 2% DMSO, and the protein in complex with a compound and 2% DMSO. The dissociation constant Kd was estimated by titrating the compound to SUMO-2, followed by recording HSQC spectra at protein:compound ratios of 1:1, 1:2, 1:3, 1:4, 1:5, 1:6, 1:7 and 1:20.
Interactions of the compounds shown in FIG. 4 with SUMO-1 and SUMO-3 were verified by NMR chemical shift perturbation analysis. These compounds generated negligible chemical shift perturbations (CSP) on SUMO-1, but much larger and specific chemical shift perturbations on SUMO-3 (FIGS. 5A and 6). […] Chemical shift perturbation was used to estimate the binding affinity of the representative compound, 333751, to SUMO-3 (20). […] This is not surprising given the much smaller size of the compound than the 10 amino acid residue SIM peptide. The SIM-binding groove on SUMO is very shallow and lacks a deep pocket (8). Since there is a lack of high affinity ligands to bind shallow surface pockets of proteins, it is unlikely that a high affinity small molecule ligand for the SIM binding surface of SUMO can be found.

[1] = target: T1, interaction between poly-SUMO-3 chain and the tandem-SIM peptide (Homo sapiens, UniProt P55854); experiment: SIM pull-down (ELISA) competition, poly-SUMO-3 chains; assay type: binding
T1 construct: made in house
T1 sequence (P55854 1-92 limits assumed): as above
T1 sequence (P55854 1-92 limits assumed): as above
Method: Poly-SUMO chain formation. Poly-SUMO chains were synthesized by an in vitro SUMOylation reaction (4.375 μM GST-SUMO-3 and His-SUMO-3, 40 nM Ubc9 and E1, and 5 mM ATP in a 100 μl reaction). The reaction was carried out at 37° C. for 4 h and then diluted to 1 mL with phosphate buffered saline (PBS). Poly-SUMO chains were first separated from the His-SUMO-3 monomer by glutathione affinity chromatography. The eluted poly-SUMO chains were subsequently separated from the GST-SUMO-3 monomer by Ni-NTA chromatography. The eluted poly-SUMO chains were dialyzed and concentrated.
(§1) Purification of GST-WT-SIM and GST-SC-SIM. GST-tagged wild-type (GST-WT-SIM) or scrambled SIM sequence (GST-SC-SIM) was subcloned into the pGex4T-S expression vector (Amersham) and over-expressed as an N-terminal GST fusion protein in Escherichia coli strain BL21 (DE3) (Invitrogen) at 37° C. in LB media. […]
(§2) SIM pull-down. […] The plate was read at 450 nm by an ELISA reader after the reaction was stopped by addition of phosphoric acid. Quantifications of all SIM pull-downs were scaled by measurement of GST-WT-SIM pull-down (100%) and GST-SCSIM pull-down (0%). […]
The SIM and control peptides were used in pull-down assays to determine the inhibitory effects of the conjugation of inhibitor to AuNPs. […] The amount of SUMO pulled down by the SIM peptide was detected by enzyme-linked immunosorbent assay (ELISA) in an EIA microtiter plate. […]

[2] = target: interaction between SIM and SUMO-1 (Homo sapiens, UniProt P63165); experiment: SIM pull-down (ELISA) competition, SUMO-1 monomer; assay type: binding
Chain of interaction between SIM and SUMO-1 (P63165 1-97 limits assumed): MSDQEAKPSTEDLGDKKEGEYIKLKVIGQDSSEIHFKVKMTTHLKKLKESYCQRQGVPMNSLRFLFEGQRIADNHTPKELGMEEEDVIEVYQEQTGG
Method: as §1, with “media. Once the OD A595 nm reached 0.6, isopropyl 1-thio-[…] (IPTG; 1 mM) was added to the media and the cells were grown for an additional 4 h at 37° C.” for “media.”
as §2
(§3) The SIM and control peptides were used in pull-down assays to determine the inhibitory effects of the conjugation of inhibitor to AuNPs. […] The amount of SUMO pulled down by the SIM peptide was detected by enzyme-linked immunosorbent assay (ELISA) in an EIA microtiter plate. […] Based on the concentrations of SUMO chains and the experimental design, it was determined that the IC50 value is likely larger than the average Kd value of the complex between AuNP and SUMO chains.

[3] = target: interaction between SIM and SUMO-3 (Homo sapiens, UniProt P55854); experiment: SIM pull-down (ELISA) competition, SUMO-3 monomer; assay type: binding
Chain of interaction between SIM and SUMO-3 (P55854 1-92 limits assumed): as the sequence (P55854 1-92 limits assumed) above
Method: as §1, with “media. Once the OD A595 nm reached 0.6, isopropyl 1-thio-[…] (IPTG; 1 mM) was added to the media and the cells were grown for an additional 4 h at 37° C.” for “media.”
as §2, §3

all SUMO isoforms = details: reference (7), cited from earlier work

inhibition of SUMO-1 monomer / SIM peptide interaction [2] | inhibition of SUMO-3 monomer / SIM peptide interaction [3] | affinity lower than that between the PIASx SIM and SUMO-2 (SUMO-3; compared with PIASx SIM peptide) | Kd (SUMO-3; estimated from chemical shift change vs ligand:protein ratio) | Molecule | chemical shift perturbation / binding to SUMO-3 (SUMO-3) | inhibition of poly-SUMO-3 chain / SIM interaction [1] | higher affinity for all SUMO isoforms than other characterized SIM sequences (all SUMO isoforms) | Kd (all SUMO isoforms; read-out: dissociation constants for all SUMO isoforms)
not significantly inhibitory | not significantly inhibitory | – | – | CCC(C)[C@H](NC(=O)/C=C/c1ccc(NC(=O)CCS)cc1)C(=O)N[C@@H](CC(C)C)C(=O)O (stereo partly drawn) [derivative 2] | induced chemical shift perturbation on the same surface of SUMO-3 and to a similar extent | nor did it inhibit poly-SUMO chain and SIM interactions | – | –
– | – | – | – | KVDVIDLTIE [PIASx SIM] | – | – | ~10 fold | 4 to 8 µM
– | – | more than 200 fold | 1200 ± 400 µM | CCC(C)[C@H](NC(=O)OCc1ccccc1)C(=O)N[C@@H](CC(C)C)C(=O)O (stereo partly drawn) [compound 333751] (Cbz-[Ile(3ξ)]-Leu-OH) | among the strongest; also recorded: induced chemical shift perturbation on the same surface of SUMO-3 and to a similar extent | – | – | –

— US8796202B2, “Multi-valent poly-Ubl chain inhibitors and methods of use” (City of Hope, priority 2011, dated 2014)
